Measured values as given in patent US10538487B2, “Sulfonylureas and related compounds and use of same” (priority 2015, dated 2020).
Where “and” joins values, the source holds several entries; their conditions need not be identical. Equal entries are not always repeated.

Assay: Single dose pharmacokinetic study in mice (iv 4 mg/Kg, po 20 mg/Kg), plasma concentration post-dosing
Assay type: in vivo, mouse
Details: mouse
Description: This is advantageous leading to comparatively lower doses or less frequent administration. The procedure followed was: Male C57BL/6 mice were used at 7-9 weeks age with 3 animals per group. Mice were dosed with test compound using single intravenous bolus or oral gavage. Blood samples were taken via submandibular or saphenous vein for analysis of plasma concentrations of compound by LC-MS/MS at the following timepoints: IV (3 mice): 0.083, 0.25, 0.5, 1, 2, 4, 8 and 24 hours post dosing, PO (3 mice): 0.25, 0.5, 1, 2, 4, 8 and 24 hours post dosing. LC-MS/MS method for the quantitative determination of test compound in corresponding biological matrix was developed. […] The results are shown graphically in FIGS. 1A to 1C (MCC950) and FIGS. 2A to 2C (MCC7840).

[1] = IV 4 mg/Kg, individual mice M1-M3, 4 mg/kg
[2] = PO 20 mg/Kg, individual mice M4-M6, 20 mg/kg

- MRT last (male, C57BL/6, mouse, plasma, po, 20 mg/kg, PO 20 mg/Kg, mean of 3 mice, read-out: MRT0-last, Mean PO): 6.43 h
- half-life (male, C57BL/6, mouse, plasma, po, 20 mg/kg, PO 20 mg/Kg, mean of 3 mice, read-out: T1/2, Mean PO (converted)): 5.02 h
- Tmax (male, C57BL/6, mouse, plasma, po, 20 mg/kg, PO 20 mg/Kg, mean of 3 mice, read-out: Tmax, Mean PO): 0.25 h
- bioavailability (male, C57BL/6, plasma, PO 20 mg/Kg vs IV 4 mg/Kg, Mean PO, read-out: Bioavailability): 67.2%
- Plasma concentration, IV Time 5 min (IV 4 mg/Kg, 5 min post dosing, individual mice M1-M3, 4 mg/kg): 41900 ng/mL and 38600 ng/mL
- Plasma concentration, IV Time 0.250 h (IV 4 mg/Kg, 0.250 h post dosing, individual mice M1-M3, 4 mg/kg): 29300 ng/mL
- Plasma concentration, IV Time 0.500 h (IV 4 mg/Kg, 0.500 h post dosing, individual mice M1-M3, 4 mg/kg): 25200 ng/mL and 24500 ng/mL
- Plasma concentration, IV Time 1.00 h (IV 4 mg/Kg, 1.00 h post dosing, individual mice M1-M3, 4 mg/kg): 18900 ng/mL and 17200 ng/mL
- Plasma concentration, IV Time 2.00 h (IV 4 mg/Kg, 2.00 h post dosing, individual mice M1-M3, 4 mg/kg): 14700 ng/mL and 19900 ng/mL
- Plasma concentration, IV Time 4.00 h (IV 4 mg/Kg, 4.00 h post dosing, individual mice M1-M3, 4 mg/kg): 8550 ng/mL and 8590 ng/mL
- Plasma concentration, IV Time 8.00 h (IV 4 mg/Kg, 8.00 h post dosing, individual mice M1-M3, 4 mg/kg): 3360 ng/mL and 4440 ng/mL
- Plasma concentration, IV Time 24.0 h (IV 4 mg/Kg, 24.0 h post dosing, individual mice M1-M3, 4 mg/kg): 122 ng/mL and 130 ng/mL
- Tlast (IV 4 mg/Kg, individual mice M1-M3): 24.0 h
- AUC0-inf [1]: 105.283 µg·h/mL and 116.833 µg·h/mL
- AUC0-last [1]: 104.705 µg·h/mL and 116.222 µg·h/mL
- AUCExtra [1]: 0.770% and 0.549% and 0.523%
- AUMCExtra [1]: 5.23% and 3.81% and 3.41%
- C0 [1]: 50100 ng/mL and 44301 ng/mL
- Cl [1]: 0.633 mL/min/kg and 0.571 mL/min/kg
- MRT0-inf [1]: 4.15 h and 4.40 h
- MRT0-last [1]: 4.01 h and 4.28 h
- T1/2 [1]: 3.29 h and 3.26 h
- Vdss [1]: 0.158 L/kg and 0.151 L/kg
- AUCExtra, Mean IV (IV 4 mg/Kg, mean of 3 mice): 0.614%
- AUMCExtra, Mean IV (IV 4 mg/Kg, mean of 3 mice): 4.15%
- C0, Mean IV (IV 4 mg/Kg, mean of 3 mice): 52245 ng/mL
- Tlast, Mean IV (IV 4 mg/Kg, mean of 3 mice): 24.0 h
- Plasma concentration, PO Time 24.0 h (PO 20 mg/Kg, 24.0 h post dosing, individual mice M4-M6, 20 mg/kg): 660 ng/mL and 2370 ng/mL and 1370 ng/mL
- Tlast (PO 20 mg/Kg, individual mice M4-M6): 24.0 h
- AUC0-inf [2]: 251.697 µg·h/mL and 466.063 µg·h/mL
- AUCExtra [2]: 0.922% and 9.94% and 1.77%
- AUMCExtra [2]: 5.35% and 32.1% and 7.78%
- MRT0-last [2]: 8.07 h and 6.41 h
- T1/2 [2]: 3.57 h and 7.31 h and 4.18 h
- AUCExtra, Mean PO (PO 20 mg/Kg, mean of 3 mice): 4.21%
- AUMCExtra, Mean PO (PO 20 mg/Kg, mean of 3 mice): 15.1%
- Tlast, Mean PO (PO 20 mg/Kg, mean of 3 mice): 24.0 h
Compound: CC(C)n1ccc(S(=O)(=O)NC(=O)Nc2c3c(cc4c2CCC4)CCC3)n1 [MCC_007840_002]
- Plasma concentration, PO Time 0.250 h (PO 20 mg/Kg, 0.250 h post dosing, individual mice M4-M6, 20 mg/kg): 84300 ng/mL and 27400 ng/mL and 69700 ng/mL
- Plasma concentration, PO Time 0.500 h (PO 20 mg/Kg, 0.500 h post dosing, individual mice M4-M6, 20 mg/kg): 70300 ng/mL and 24000 ng/mL and 56600 ng/mL
- Plasma concentration, PO Time 1.00 h (PO 20 mg/Kg, 1.00 h post dosing, individual mice M4-M6, 20 mg/kg): 60400 ng/mL and 20900 ng/mL and 45700 ng/mL
- Plasma concentration, PO Time 2.00 h (PO 20 mg/Kg, 2.00 h post dosing, individual mice M4-M6, 20 mg/kg): 54900 ng/mL and 19100 ng/mL and 53800 ng/mL
- Plasma concentration, PO Time 4.00 h (PO 20 mg/Kg, 4.00 h post dosing, individual mice M4-M6, 20 mg/kg): 32900 ng/mL and 14100 ng/mL and 32800 ng/mL
- Plasma concentration, PO Time 8.00 h (PO 20 mg/Kg, 8.00 h post dosing, individual mice M4-M6, 20 mg/kg): 14100 ng/mL and 12800 ng/mL and 29900 ng/mL
- AUC0-last [2]: 364.947 µg·h/mL and 226.687 µg·h/mL and 457.808 µg·h/mL
- Cmax [2]: 84300 ng/mL and 27400 ng/mL and 69700 ng/mL
